Read-outs that look alike come from different tables or passages of the source.
Tests used:
[1] = cited from earlier work
fat cells = conditions: cited from earlier work
[2] = test system: cellulite and adiposities; test: Study of efficacy of topically delivered DMSO for eliminating cellulite and adiposities; assay type: in vivo, human
Description: This study was exclusively designed to determine the efficacy and safety of DMSO delivered in several manners and in different concentrations for eliminating cellulite and adiposities.
This is a multicentric, prospective, longitudinal study, where clinical and instrumental parameters are used to detect results regarding different formulations and application forms performed. It is not possible to perform a double-blind study with placebo due to the strong odor of DMSO present in formulations, easy to identify.
A group of 145 subjects, with ages ranging from 18 to 55 years (average 36.5 y.o.), having cellulite for at least 2 years, were recruited from April, 2008 until July, 2008.
Inclusion criteria were: presence of cellulite (stages 1, 2, 3, and 4) in subjects of groups A and B; accentuated abdominal fat in the subjects of the group C; age ranging from 18 to 55 years old and interest in entering the study.
Exclusion criteria were: after liposculpture, other treatments anti-cellulite ongoing or 30 days before entering the study, pregnant and nursing women, cancer, people with hormonal alterations, endocrinological disorders, and people under hormonal or endocrinal treatment.
(§1) 145 subjects were randomized in 3 groups and received 3 different treatments according to established method. Group A entered 29 female subjects having Dermal Paniculopathy (cellulite) stages 1 and 2, Group B entered 58 female subjects with Dermal Paniculopathy (cellulite) stages 3 and 4, and Group C entered 58 subjects, 35 female and 23 male, all having pronounced abdominal fat.
(§2) The three products were formulated as follows: group A consisted in an aqueous solution of DMSO at 20% and aerosol spray to 5%, group B consisted in an aqueous solution of DMSO at 50% and aerosol spray 5%, and group C consisted in an aqueous solution of DMSO at 90% and aerosol spray at 5%.
The aqueous solution was used in the massage applied before the delivery of spray. Each massage session lasted 45 minutes in average.
After massage, the spray was applied at 30 cm (11.80 in) of distance for approximately 5 seconds in each site.
After the procedure as above, a drainage massage was applied for 20 minutes.
In total, each session last 1 hour and 30 minutes in average.
Two sessions were applied per week during 5 weeks.
All subjects were analyzed at the end of each session, and especially after the 10 sessions.
Evaluation methods were: digital photographs (before and after), clinical observation, measurement of thigh circumference, pinching test (for pain), measurement of fat with plicometer/adipometer, measurement of abdominal circumference, measurement of hips and waist circumference, and questionnaire with questions about swelling, pain and heaviness in the legs, cellulite appearance, weight, general efficacy of the product, tolerability, satisfaction with the treatment, sensation of wellbeing, increased diuresis, urine color, among others.

[3] = design: species or system human; conditions: in vivo
Description: as §1, §2
The aqueous solution was used in the massage applied before the delivery of spray. Each massage session lasted 45 minutes in average. […]
Adverse reactions commonly reported in a period of 2 hours right after the application were: nausea (27 subjects or 19%), headache (15 subjects or 11%), feeling of burn in application site (11 subjects or 8%), itch and redness in application site (14 subjects or 10%), hypotension (7 subjects or 5%), odor and taste similar to garlic or corn (136 subjects or 98%), dry mouth (32 subjects or 23%), increased diuresis (98 subjects or 70%), strong urine color and odor (68 subjects or 49%). These reactions were evaluated as light and transitory.

adipocytes (fat cells) = test: Adipocytes destroyed per application of DMSO; assay type: in vivo
[4] = cited from earlier work; remark: listed apart in the source
[5] = cited from earlier work; remark: listed apart in the source
serum cholesterol = conditions: cats, given with water along with a cholesterol-based diet; cited from earlier work
[6] = test system: cyclic AMP phosphodiesterase; conditions: present in fat cells; high concentrations; cited from earlier work
[7] = humans, after DMSO administration
[8] = humans, dermal delivery of a DMSO solution at 70%
[9] = % of subjects in this category after 10 topical sessions
[10] = % of subjects in this category after 10 topical sessions, regular diet and physical activities kept
[11] = reports among subjects with accentuated venous insufficiency and varicose veins (30% of 139)
[12] = humans, plasma, dermal delivery of a DMSO solution at 70%
[13] = topical DMSO 80%, gram/kg per day, 60 subjects, 14 days

## CS(C)(=O)=O [DMSO2, Dimethyl sulphona]
[1]; [7]
  time DMSO2 persisted in plasma: approximately 400 hours
  time at which DMSO2 appeared in plasma: 48 h
[1]; humans, dermal administration of DMSO
  Excretion of DMSO2: 21-23%
[1]; [8]
  duration of urinary excretion of DMSO2: 456 h
  plasmatic levels of DMSO2 after 312 hours: low but still detectable
  time at which urinary excretion of DMSO2 became more significant: approximately 8 hours
  time of maximum plasmatic levels of DMSO2: 60 to 70 h
  total average amount of DMSO2 excreted in urine: 17.8 % dose of DMSO
[1]; humans, oral administration of DMSO
  Excretion of DMSO2: 5-10%
Fat cells
  accumulation of cyclic AMP due to norepinephrine: did not cause any changes

## C[S+](C)[O-] [DMSO, Dimethyl Sulfoxide]
[2]; % of subjects in this category
  General satisfaction after all 10 sessions: Bad: 0%
  General satisfaction after all 10 sessions: Excellent: 72%
  General satisfaction after all 10 sessions: Good: 6%
  General satisfaction after all 10 sessions: Great: 22%
  General satisfaction after all 10 sessions: Regular: 0%
[2]; [9]
  Abdominal circumference reduction: 3.1-5 cm: 39%
  Abdominal circumference reduction: 5.1 cm and more: 29%
  Abdominal circumference reduction: Up to 3 cm: 32%
  Diuresis improvement: Bad: 0%
  Diuresis improvement: Excellent: 28%
  Diuresis improvement: Good: 25%
  Diuresis improvement: Great: 39%
  Diuresis improvement: Regular: 8%
  General efficacy: Bad: 0%
  General efficacy: Excellent: 74%
  General efficacy: Good: 9%
  General efficacy: Great: 17%
  General efficacy: Regular: 0%
  General feeling of improvement: Bad: 0%
  General feeling of improvement: Excellent: 78%
  General feeling of improvement: Good: 10%
  General feeling of improvement: Great: 12%
  General feeling of improvement: Regular: 0%
  Hip circumference reduction: 2.6-4.5 cm: 43%
  Hip circumference reduction: 4.5 cm and more: 26%
  Hip circumference reduction: Up to 2.5 cm: 31%
  Improvement from orange peel skin appearance: Bad: 0%
  Improvement from orange peel skin appearance: Excellent: 76%
  Improvement from orange peel skin appearance: Good: 11%
  Improvement from orange peel skin appearance: Great: 13%
  Improvement from orange peel skin appearance: Regular: 0%
  Mood improvement: Bad: 0%
  Mood improvement: Excellent: 26%
  Mood improvement: Good: 33%
  Mood improvement: Great: 41%
  Mood improvement: Regular: 0%
  Reduced pain in cellulite sites: Bad: 0%
  Reduced pain in cellulite sites: Excellent: 21%
  Reduced pain in cellulite sites: Good: 39%
  Reduced pain in cellulite sites: Great: 27%
  Reduced pain in cellulite sites: Regular: 13%
  Thigh circumference reduction: 2.1-4 cm: 48%
  Thigh circumference reduction: 4.1 cm and more: 24%
  Thigh circumference reduction: Up to 2 cm: 28%
  well-being: Bad: 5%
  well-being: Excellent: 20%
  well-being: Good: 28%
  well-being: Great: 44%
  well-being: Regular: 3%
[2]; [10]
  Weight loss: 2.1-3 kg: 44%
  Weight loss: 3 kg and more: 25%
  Weight loss: Up to 2 kg: 31%
[2]; [11]
  Decreased and whitened macrovaricose veins: 39%
  Decreased pain in legs, arms and hands: 62%
  Decreased swelling and heaviness in the legs: 73%
  Decreased tingling legs and arms: 55%
[3]
  Discontinuation of treatment due to adverse reactions: No patient discontinued the treatment due to adverse reactions
Adipocytes (fat cells)
  amount of adipocytes destroyed per session/application: 50,000-500,000 cells
[1]; estimate of Kolb et al. (1965)
  dose excreted in the air as dimethyl sulfide: approximately 3 % of the dose
[1]; humans, 1 g/kg dermally, fluid form and gel form, 10 subjects each
  dose recovered in urine: less than 10 % of the dose
[1]; humans, dermal administration
  Urinary excretion of DMSO: 30-68 % of the dose
[1]; [8]
  Total urinary excretion of DMSO (average): 13 % dose
  dose accounted for by urinary excretion of DMSO and DMSO2 (average): 30.8 % dose
  duration of urinary excretion of DMSO: 48 h
  time of maximum plasmatic levels of DMSO: 4 to 8 h
[1]; humans, dermally administered
  time of peak of plasmatic levels: 4 to 8 h
[1]; humans, oral administration
  Urinary excretion of DMSO: approximately 13 % of the dose
[1]; humans, orally administered
  time to plasma peak: ≤ 4 h
[1]; [12]
  half-life: 11 to 14 h
  time after which DMSO could not be detected any longer: 36 to 48 h
[1]; humans
  time after which serum levels of DMSO were undetectable: 120 h
[1]; in vivo
  share of excretion via air: less than 3%
[4]; DMSO at 80% gram/kilogram per day topically for 14 days and 90 days
  eosinophilia: can cause eosinophilia
[4]; subjects receiving topical solution
  ocular adverse effect: No ocular adverse effect was observed
[4]; [13]
  dizziness: 18%
  dry nasal passages, dry or painful throat and cough: Less than 5%
  headache: 42%
  sedation: 52%
[4]; topical application
  duration of odor similar to garlic in the body: up to 72 hours
[5]; animals exposed
  teratogenic effects: Teratogenic effects were observed
[5]; studies in animals
  ocular findings in animals: changes to lenses
Serum cholesterol
  prevention of expected increase of serum cholesterol: 50%
Fat cells; after addition of the lipolytic agents, 1.10 M DMSO
  time at which increase of cyclic AMP due to DMSO was detected: 40 s
Fat cells
  increase of lipolysis due to glucagon, norepinephrine or theophylline: potentialized
  lipolysis: increased
  oxidation of glucose stimulated by insulin: decreased
[6]
  activity of cyclic AMP phosphodiesterase, soluble and particulate: inhibited

## CSC [dimethyl sulfide]
Fat cells
  accumulation of cyclic AMP due to norepinephrine: did not cause any changes

Reference: US20130253069A1, “Use of DMSO for Destroying Adipocytes and Eliminating Cellulite and Adiposities” (priority 2010, published 2013)
